The nature of data set [1]: Hepatocyte stability (mouse). The following applies: test compound 3 μM, 60 min; for hepatocyte CLint at 3 μM: mouse, cryopreserved pooled hepatocytes in suspension, read-out: Mouse heps Clint; for Mouse heps Clint: mouse cryopreserved hepatocytes. It counts as in vitro ADME. Here is the method:
(iii) Hepatocyte Stability (Human, Mouse, Rat or Dog)
Test compound (3 μM) is incubated with cryopreserved hepatocytes in suspension. Samples are removed at 6 time points over the course of a 60 min experiment and test compound is analysed by LC-MS/MS. An intrinsic clearance value (CLint) with standard error and half-life (t %) are calculated. Cryopreserved pooled hepatocytes are stored in liquid nitrogen prior to use. […] The final incubation volume is 500 μL. A control incubation is included for each compound tested where lysed cells are added instead of viable cells. Two control compounds are included with each species.
The reactions are stopped by transferring 50 μL of incubate to 100 μL methanol containing internal standard at the appropriate time points. The control (lysed cells) is incubated for 60 min only. The termination plates are centrifuged at 2500 rpm at 4° C. for 30 min to precipitate the protein. Following protein precipitation, the sample supernatants are combined in cassettes of up to 4 compounds and analysed using generic LC-MS/MS conditions. From a plot of In peak area ratio (compound peak area/internal standard peak area) against time, the gradient of the line is determined. Subsequently, half-life (t %) and intrinsic clearance (CLint) are calculated using the equations below: […]

Data set [2] addresses hGPR88 receptor (Homo sapiens, UniProt Q9GZN0). Put plainly: hGPR88-HEK cAMP accumulation assay. The note with it: HEK-293 cells expressing human recombinant GPR88, forskolin 200 nM, High/Medium/Low bands. For orientation: Cyclic AMP is a second messenger, typically raised through Gs and lowered through Gi signalling.
Protocol: Biological Assay 1: hGPR88-HEK cAMP Accumulation Assay
Cryopreserved vials of HEK-293 cells expressing human recombinant GPR88 receptor are re-suspended in KRH assay buffer and 5 μl of cell solution is suspended in test wells at a seeding density of 2500±500 cells per well using the multidrop to provide a final reaction volume of 10 μl containing 0.5% DMSO. Assay plate is incubated for 30 min at room temperature and the reaction is terminated by addition of 5 μl of each of the cAMP detection reagents of the cAMP Gi kit (Cisbio Bioassays, 62AM9PEJ), diluted in cell lysis buffer, to each well using the multidrop in the following order: first the cAMP-d2 conjugate, then the anti-cAMP cryptate conjugate. […] Raw counts were converted to cAMP concentrations via a standard curve before EC50 and Emax determination. Data is expressed as % decrease in forskolin stimulated cAMP compared to cells treated with vehicle alone in the same buffer and on the same plate.
For data set [3], the target named is T1, dopamine uptake transporter (rat DAT) (Rattus norvegicus, UniProt P23977).
T1 construct: is determined in rat striatum synaptosomes following [^3H]dopamine scintillation counting; from tissue; host or cells: rat striatum synaptosomes
Put plainly: Dopamine transporter uptake assay. It counts as biochemical. The following applies: rat striatum synaptosomes, [3H]dopamine.

[4] abbreviates: read-out: GRP88 agonist activity (EC50).

Read-outs that look alike come from different tables or passages of the source.

T1 sequence (P23977 whole entry): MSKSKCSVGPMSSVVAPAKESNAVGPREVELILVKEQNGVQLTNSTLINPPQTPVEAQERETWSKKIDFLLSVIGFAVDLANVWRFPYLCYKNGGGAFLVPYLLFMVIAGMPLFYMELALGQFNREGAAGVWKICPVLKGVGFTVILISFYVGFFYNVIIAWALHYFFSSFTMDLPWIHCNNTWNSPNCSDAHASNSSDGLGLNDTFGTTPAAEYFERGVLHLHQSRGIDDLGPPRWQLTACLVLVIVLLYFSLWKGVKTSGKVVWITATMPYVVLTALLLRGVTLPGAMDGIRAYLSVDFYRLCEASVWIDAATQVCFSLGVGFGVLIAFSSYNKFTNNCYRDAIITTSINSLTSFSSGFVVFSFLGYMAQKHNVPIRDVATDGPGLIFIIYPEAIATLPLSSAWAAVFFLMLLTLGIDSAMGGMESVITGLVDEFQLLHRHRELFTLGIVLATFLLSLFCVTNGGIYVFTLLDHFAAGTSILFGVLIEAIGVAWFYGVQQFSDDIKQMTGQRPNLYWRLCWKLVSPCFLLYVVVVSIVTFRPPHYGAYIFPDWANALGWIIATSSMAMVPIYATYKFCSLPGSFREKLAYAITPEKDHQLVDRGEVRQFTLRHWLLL
hGPR88 receptor, sequence (Q9GZN0 whole entry): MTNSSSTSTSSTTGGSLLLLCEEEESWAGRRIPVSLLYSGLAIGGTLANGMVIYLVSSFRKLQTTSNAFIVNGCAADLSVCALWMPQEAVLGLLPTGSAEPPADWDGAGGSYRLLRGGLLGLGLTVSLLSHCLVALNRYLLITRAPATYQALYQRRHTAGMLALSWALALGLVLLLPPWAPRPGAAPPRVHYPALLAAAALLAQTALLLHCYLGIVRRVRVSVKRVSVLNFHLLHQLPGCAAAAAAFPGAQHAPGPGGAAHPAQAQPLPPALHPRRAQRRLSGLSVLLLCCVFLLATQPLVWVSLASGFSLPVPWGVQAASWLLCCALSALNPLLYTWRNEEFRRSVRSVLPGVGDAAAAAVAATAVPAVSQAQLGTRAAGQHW

The EC50 is the concentration that produces a half-maximal response. Take `COCc1ccc(-c2ccc(NC(=O)C(C)(C)Oc3ccc(C#N)cc3)cc2)cc1` [Example 68, 2-(4-cyanophenoxy)-N-(4′-(methoxymethyl)-[1,1′-biphenyl]-4-yl)-2-methylpropanamide]: in data set [1], the hepatocyte CLint at 3 μM came to 37 µL/min/1e6 cells. The EC50 in data set [2] (GRP88 agonist activity (EC50)) was below 1000 nM. On to `COCc1ccc(-c2ccc(NC(=O)C3CC3c3ccccn3)cc2)cc1` (racemic) [Example 18, N-(4′-(methoxymethyl)-[1,1′-biphenyl]-4-yl)-2-(pyridin-2-yl)cyclopropane-1-carboxamide], for which, in data set [3] (10 µM), the “Inhibition of dopamine uptake transporter (% inhibition at 10 μM compound)” value (from here on “Inhibition … (% inhibition at 10 μM compound)”) was found to be 0 % inhibition. As to `COCc1ccc(-c2ccc(NC(=O)C3CC3c3ccccn3)nc2)cc1` (racemic) [Example 45, (rac-trans)-N-(5-(4-(methoxymethyl)phenyl)pyridin-2-yl)-2-(pyridin-2-yl)cyclopropane-1-carboxamide], in data set [3], the “Inhibition … (% inhibition at 10 μM compound)” value turned out to be 28 % inhibition.

Regarding `COCc1ccc(-c2ccc(N(C)C(=O)C(C)(C)Oc3ccc(F)cc3)cc2)cc1` [Example 13, 2-(4-fluorophenoxy)-N-(4′-(methoxymethyl)-[1,1′-biphenyl]-4-yl)-N,2-dimethylpropanamide], the hepatocyte CLint at 3 μM in data set [1] turned out to be 90 µL/min/1e6 cells. Moreover, in data set [2] (GRP88 agonist activity (EC50)), the EC50 lay in the range of 1000 to 5000 nM. For `COCc1ccc(-c2ccc(NC(=O)C(C)(C)Oc3ccccn3)cc2)cc1` [Example 7, N-(4′-(methoxymethyl)-[1,1′-biphenyl]-4-yl)-2-methyl-2-(pyridin-2-yloxy)propanamide] the same measures were 46 µL/min/1e6 cells and 1000 to 5000 nM. Take `COCc1ccc([C@]23C[C@](NC(=O)C(C)(C)Oc4ccc(F)cc4)(C2)C3)cc1` [Example 135, 2-(4-fluorophenoxy)-N-(3-(4-(methoxymethyl)phenyl)bicyclo[1.1.1]pentan-1-yl)-2-methylpropanamide]: the EC50 in data set [2] (GRP88 agonist activity (EC50)) lay within 1000 to 5000 nM. In addition, the “Inhibition … (% inhibition at 10 μM compound)” value in data set [3] was found to be 8 % inhibition.

Consider `COCc1ccc(-c2ccc(NC(=O)C(C)(C)Oc3ccc(Cl)cc3)cc2)cc1` [Example 3], for which, in data set [1], the hepatocyte CLint at 3 μM was determined as 30 µL/min/1e6 cells. Further, in data set [2] (GRP88 agonist activity (EC50)), the EC50 was below 1000 nM.

Regarding `CCOc1ccc(-c2ccc(NC(=O)C3CC3c3ccccn3)cc2)cn1` (racemic) [Example 75, (rac-trans)-N-(4-(6-ethoxypyridin-3-yl)phenyl)-2-(pyridin-2-yl)cyclopropane-1-carboxamide], in data set [2] (setting [4]), the EC50 was 1000 to 5000 nM. Besides, the “Inhibition … (% inhibition at 10 μM compound)” value in data set [3] (10 µM) was determined as 5 % inhibition. In the case of `CCCc1ccc(C23CC(NC(=O)C(C)(C)Oc4ccc(F)cc4)(C2)C3)cc1` [Example 9, 2-(4-fluorophenoxy)-2-methyl-N-(3-(4-propylphenyl)bicyclo[1.1.1]pentan-1-yl)propenamide], the hepatocyte CLint at 3 μM in data set [1] amounted to 39 µL/min/1e6 cells. In data set [2] (GRP88 agonist activity (EC50)), the EC50 lay in the range of 1000 to 5000 nM. As for `CCCc1ccc([C@]23C[C@](NC(=O)C4CC4c4ccccn4)(C2)C3)nc1` (mixture of isomers) [Example 137, N-(3-(5-propylpyridin-2-yl)bicyclo[1.1.1]pentan-1-yl)-2-(pyridin-2-yl)cyclopropane-1-carboxamide], the EC50 in data set [2] (GRP88 agonist activity (EC50)) lay in the range of 1000 to 5000 nM. Also, in data set [3], the “Inhibition … (% inhibition at 10 μM compound)” value is 10 % inhibition.

For the molecule `CCCc1ccc(C23CC(NC(=O)C4CC4c4ccccn4)(C2)C3)cc1` (racemic) [Example 8, (rac-trans)-N-(3-(4-propylphenyl)bicyclo[1.1.1]pentan-1-yl)-2-(pyridin-2-yl)cyclopropane-1-carboxamide], the hepatocyte CLint at 3 μM in data set [1] stood at 55 µL/min/1e6 cells. In addition, the half-maximal effective concentration (EC50) in data set [2] (GRP88 agonist activity (EC50)) is below 1000 nM.

Turning to `CC(C)Oc1ccc(-c2ccc(NC(=O)C(C)(C)Oc3ccc(F)cc3)cc2)cn1` [Example 92, 2-(4-fluorophenoxy)-N-(4-(6-isopropoxypyridin-3-yl)phenyl)-2-methylpropanamide], the hepatocyte CLint at 3 μM in data set [1] was 47 µL/min/1e6 cells. In data set [2] (GRP88 agonist activity (EC50)), the EC50 was below 1000 nM. As to `COCc1ccc(-c2ccc(NC(=O)C3CC3c3ccccn3)nc2)cc1` (racemic) [Example 121, (rac-trans)-N-(5-(4-(methoxymethyl)phenyl)pyridin-2-yl)-2-(pyridin-2-yl)cyclopropane-1-carboxamide], the hepatocyte CLint at 3 μM in data set [1] worked out at 30 µL/min/1e6 cells. Besides, the EC50 in data set [2] (setting [4]) was 1000 to 5000 nM. With `O=C(Nc1ccc(-c2ccc(CN3CCOCC3)cc2)cc1)C1CC1c1ccccn1` (single isomer, unassigned) [Example 78, (1R*,2R*)-N-(4′-(morpholinomethyl)-[1,1′-biphenyl]-4-yl)-2-(pyridin-2-yl)cyclopropane-1-carboxamide], in data set [3], the “Inhibition … (% inhibition at 10 μM compound)” value was 17 % inhibition.

For `CN(C)c1ncc(-c2ccc(NC(=O)C(C)(C)Oc3ccc(F)cc3)cc2)cn1` [Example 49, N-(4-(2-(dimethylamino)pyrimidin-5-yl)phenyl)-2-(4-fluorophenoxy)-2-methylpropanamide], in data set [2] (GRP88 agonist activity (EC50)), the EC50 was below 1000 nM. Besides, the “Inhibition … (% inhibition at 10 μM compound)” value in data set [3] was determined as 0 % inhibition. Take `COCc1ccc(-c2ccc(NC(=O)C3(Oc4ccc(F)cc4)CC3)cc2)cc1` [Example 53, 1-(4-fluorophenoxy)-N-(4′-(methoxymethyl)-[1,1′-biphenyl]-4-yl)cyclopropane-1-carboxamide]: the hepatocyte CLint at 3 μM in data set [1] amounted to 71 µL/min/1e6 cells. Further, the EC50 in data set [2] (GRP88 agonist activity (EC50)) was below 1000 nM.

With `CC(C)(Oc1ccc(F)cc1)C(=O)Nc1ccc(-c2ccc(CN3CCOCC3)cc2)cc1` [Example 25, 2-(4-fluorophenoxy)-2-methyl-N-(4′-(morpholinomethyl)-[1,1′-biphenyl]-4-yl)propenamide], in data set [1], the hepatocyte CLint at 3 μM is 41 µL/min/1e6 cells. The concentration giving a half-maximal response (EC50) in data set [2] (GRP88 agonist activity (EC50)) was below 1000 nM. On the same counts, the results for `COCc1ccc(-c2ccc(NC(=O)C(C)(C)Oc3ccccc3)cc2)cc1` [Example 4, N-(4′-(methoxymethyl)-[1,1′-biphenyl]-4-yl)-2-methyl-2-phenoxypropanamide] are 51 µL/min/1e6 cells and below 1000 nM. On the same counts, the results for `COCc1ccc(-c2ccc3c(c2)CCN3C(=O)C(C)(C)Oc2ccc(F)cc2)cc1` [Example 32, 2-(4-fluorophenoxy)-1-(5-(4-(methoxymethyl)phenyl)indolin-1-yl)-2-methylpropan-1-one] are 65 µL/min/1e6 cells and 1000 to 5000 nM. `CCCc1ccc(C23CC(NC(=O)C4CC4c4ccccn4)(C2)C3)cc1` (racemic) [Example 35, (rac-trans)-N-(3-(4-propylphenyl)bicyclo[1.1.1]pentan-1-yl)-2-(pyridin-2-yl)cyclopropane-1-carboxamide]: the “Mouse heps Clint” value in data set [1] was 49 μL/min/10^6 cells. For the same molecule, the EC50 in data set [2] (GRP88 agonist activity (EC50)) was below 1000 nM.

In the case of `CCOc1ccc(OC(C)(C)C(=O)Nc2ccc(-c3ccc(COC)cc3)cc2)cc1` [Example 70, 2-(4-ethoxyphenoxy)-N-(4′-(methoxymethyl)-[1,1′-biphenyl]-4-yl)-2-methylpropanamide], in data set [1], the hepatocyte CLint at 3 μM worked out at 74 µL/min/1e6 cells. For the same molecule, the half-maximal effective concentration (EC50) in data set [2] (GRP88 agonist activity (EC50)) was below 1000 nM. On to `COCc1ccc(-c2ccc(NC(=O)C3CC3c3ccccn3)cc2)cc1` (single isomer, unassigned) [Example 18, N-(4′-(methoxymethyl)-[1,1′-biphenyl]-4-yl)-2-(pyridin-2-yl)cyclopropane-1-carboxamide], for which, in data set [1], the hepatocyte CLint at 3 μM is 70 µL/min/1e6 cells. Besides, the EC50 in data set [2] (GRP88 agonist activity (EC50)) was below 1000 nM. In the case of `CN(C)c1ccc(-c2ccc(NC(=O)C(C)(C)Oc3ccc(F)cc3)cc2)cn1` [Example 79, N-(4-(6-(dimethylamino)pyridin-3-yl)phenyl)-2-(4-fluorophenoxy)-2-methylpropanamide], in data set [2] (GRP88 agonist activity (EC50)), the concentration giving a half-maximal response (EC50) is below 1000 nM. In addition, the “Inhibition … (% inhibition at 10 μM compound)” value in data set [3] is reported as 21 % inhibition.

On to `CN(C)Cc1ccc(-c2ccc(NC(=O)C(C)(C)Oc3ccc(F)cc3)cc2)cc1` [Example 17, N-(4′-((dimethylamino)methyl)-[1,1′-biphenyl]-4-yl)-2-(4-fluorophenoxy)-2-methylpropanamide], for which the hepatocyte CLint at 3 μM in data set [1] came out at 37 µL/min/1e6 cells. Besides, the EC50 in data set [2] (GRP88 agonist activity (EC50)) was in the range of 1000 to 5000 nM.

As to `COCc1ccc([C@]23C[C@](NC(=O)C4CC4c4ccccn4)(C2)C3)nc1` (mixture of isomers) [Example 136, N-(3-(5-(methoxymethyl)pyridin-2-yl)bicyclo[1.1.1]pentan-1-yl)-2-(pyridin-2-yl)cyclopropane-1-carboxamide], the EC50 in data set [2] (GRP88 agonist activity (EC50)) was above 5000 nM. Moreover, in data set [3], the “Inhibition … (% inhibition at 10 μM compound)” value is 2 % inhibition. With `CCCc1ccc(-c2ccc(N(C[C@@H](N)[C@@H](C)CC)C(=O)[C@@H]3C[C@H]3c3ccccn3)cc2)cc1` [Literature comparative 2, 2-PCCA, reference compound], the “Inhibition … (% inhibition at 10 μM compound)” value in data set [3] is recorded as 90 % inhibition. For the molecule `CCOc1ccc(-c2ccc(NC(=O)C3CC3c3ccccn3)cc2)cn1` (racemic) [Example 36, (rac-trans)-N-(4-(6-ethoxypyridin-3-yl)phenyl)-2-(pyridin-2-yl)cyclopropane-1-carboxamide], the “Mouse heps Clint” value in data set [1] came out at 80 μL/min/10^6 cells. Further, the concentration giving a half-maximal response (EC50) in data set [2] (GRP88 agonist activity (EC50)) was 1000 to 5000 nM.

The values are drawn from patent US20240132450A1, “MODULATORS OF G PROTEIN-COUPLED RECEPTOR 88” (ACADIA Pharmaceuticals Inc., priority 2020, published 2024).
